The numbers were not newly measured in the CATMoS acute toxicity set (Mansouri et al. 2021), which cites them from elsewhere.

Where “and” joins values, the source holds several entries; their conditions need not be identical. Equal entries are not always repeated.

This series can be described thus: rat acute oral toxicity. As to conditions: in vivo.
By LD50 is commonly meant the dose at which mortality reaches 50%. Regarding `C[C@@H]1CCCCN1N=O`, the LD50 is 600 mg/kg.
With `CCOC(=O)Cc1[nH]nc2ccc(Cl)cc12`, the LD50 was 4800 mg/kg.
Regarding `O=C(CN1CCCCC1)N1CCOc2ccccc21`, the LD50 is 200 mg/kg.
Consider `CCCOC(N)=O`, for which the LD50 was 1880 mg/kg.
As for `CC(=O)c1cccc(N=Nc2ccc(N(C)C)cc2)c1`, the LD50 is 4820 mg/kg.
Turning to `CO[C@@H]1[C@@H](O)[C@@H](O)[C@H](O[C@@H]2C=C3CC[C@@H]4[C@H](CC[C@]5(C)[C@@H](c6ccc(=O)oc6)CC[C@]45O)[C@@]3(C)CC2)O[C@H]1C`, the LD50 was 79 mg/kg.
Take `C[C@H]1O[C@@H](n2cc(F)c(=O)[nH]c2=O)[C@H](O)[C@@H]1O`: the LD50 was 3390 mg/kg.
For the molecule `CCCC(C)=NO`, the LD50 was 1130 mg/kg.
With `CSC(C)(C)C=NOC(=O)N(C)SN1CCOCC1`, the LD50 is 1.2 mg/kg.
Turning to `CC(C)(COCC1CO1)COCC1CO1` (centres undefined), the LD50 is 4500 mg/kg.
`C1CCN2C[C@@H]3C[C@@H](C[C@H]2C1)N1CCCC[C@@H]31`: the LD50 was 960 mg/kg.
`Cn1c(=O)c2c(ncn2CCO)n(C)c1=O`: the LD50 is 710 mg/kg.
As for `CC1(COCC2(C)CO2)CO1` (centres undefined), the LD50 is 1680 mg/kg.
`ClC=C(Cl)c1ccccc1`: the LD50 is 4000 mg/kg.
Turning to `CC(C)(C)NCC(O)COc1ccccc1OCC1CCCO1` (centres undefined), the median lethal dose (LD50) is 1090 mg/kg.
Take `COS(=O)(=O)OC`: the LD50 was 205 mg/kg.
Turning to `CCOc1ccccc1OCC`, the 50% lethal dose (LD50) is 7250 mg/kg.
With `CCOC(=S)C=Cc1ccc(OC)cc1`, the LD50 was 930 mg/kg.
Take `CC(C)CCO`: the LD50 is 1300 mg/kg.
For the molecule `CC(C)/N=c1/cc2n(-c3ccc(Cl)cc3)c3ccccc3nc-2cc1Nc1ccc(Cl)cc1`, the LD50 was 8400 mg/kg.
For `CCCCC/C(=C/c1ccccc1)CO`, the LD50 is 4000 mg/kg.
As for `CC=CC=CC#N`, the LD50 is 712 mg/kg.
For the molecule `COc1c2ccoc2cc2oc(CO[C@@H]3O[C@H](CO)[C@@H](O)[C@H](O)[C@H]3O)cc(=O)c12`, the median lethal dose (LD50) is 1470 mg/kg.
Turning to `O=C(O)C1CCc2cc(C3CCCCC3)ccc21` (centres undefined), the LD50 was 287 mg/kg and 230 mg/kg.
`Cc1ccc2c(-c3cccc(O)c3)nc(=O)n(C(C)C)c2c1`: the LD50 is 1600 mg/kg.
On to `CCOC(=O)CSP(=O)(OC)OC`, for which the LD50 is 385 mg/kg.
As for `CCOC1CCC=CO1` (centres undefined), the LD50 was 6160 mg/kg.
As for `Nc1ccc2cc(S(=O)(=O)O)ccc2c1CS(=O)(=O)O`, the LD50 was 9200 mg/kg.
For `CCCCOC(=O)CCCCC(=O)OCCCC`, the LD50 is 12900 mg/kg.
Regarding `CC(C)(C)C(CS(C)(=O)=O)=NO`, the LD50 was 734 mg/kg.
As for `Cc1ccc(S(=O)(=O)NC(=O)NC2C3CCC(C)(C2O)C3(C)C)cc1` (centres undefined), the LD50 is 18000 mg/kg.
On to `CSCc1cnccn1`, for which the LD50 is 2150 mg/kg.
As to `CCC(=O)C1(N2CCCCC2)CCN(CCCC(=O)c2ccc(F)cc2)CC1`, the LD50 is 780 mg/kg.
As for `CCOP(=O)(OCC)SCn1nc(C)oc1=O`, the 50% lethal dose (LD50) was 1 mg/kg.
In the case of `CCCCCCCCCCCCCCCCCC(=O)OC[C@@H](O)[C@H]1OC[C@H](O)[C@H]1O`, the LD50 was 31000 mg/kg.
On to `CC/C=C\CCO`, for which the LD50 was 4700 mg/kg.
As to `CN(c1ccc(Cl)cc1)S(=O)(=O)c1ccc(Cl)cc1`, the LD50 was 2500 mg/kg.
Regarding `CCOC(=O)C1CCCCC1`, the LD50 is 3960 mg/kg.
In the case of `CCC(C)S` (centres undefined), the LD50 was 5180 mg/kg.
In the case of `CCN(CCO)c1ccccc1`, the LD50 was 1640 mg/kg.
As for `Nc1ccc(Cl)c([N+](=O)[O-])c1`, the LD50 was 400 mg/kg.
Turning to `C=CC1OCCO1`, the LD50 was 84.7 mg/kg.
On to `CC1CCCc2n1c(=O)c(C(N)=O)c[n+]2C` (centres undefined), for which the LD50 was 600 mg/kg.
`CCN(CC(F)(F)F)N=O`: the median lethal dose (LD50) is 960 mg/kg.
In the case of `Fc1c(F)c(F)c2[nH]c(C(F)(F)F)nc2c1F`, the LD50 is 3.33 mg/kg.
In the case of `CC(C)COC(=O)C(C)Oc1ccc(Oc2ccc(Cl)cc2)cc1` (centres undefined), the LD50 is 723 mg/kg.
As to `CCCOC(=O)CCC`, the LD50 is 15000 mg/kg.
For the molecule `CSC(=S)N(C)C`, the LD50 was 62 mg/kg.
Take `CNC(=O)C(Cl)C(C)=O` (centres undefined): the LD50 was 700 mg/kg.
`O=C1NC(=O)C(c2ccccc2)(c2ccccc2)N1`: the LD50 was 1530 mg/kg.
Take `CN1C(=O)CN2CCc3ccccc3C2c2cc(Cl)ccc21` (centres undefined): the LD50 was 1730 mg/kg.
Consider `CC(C)c1ccccc1N`, for which the 50% lethal dose (LD50) was 1180 mg/kg.
Regarding `ClCNc1cc(Cl)ccc1Oc1ccc(Cl)cc1`, the 50% lethal dose (LD50) was 726 mg/kg.
As to `Nc1nc2ccc(Cl)cc2o1`, the LD50 is 226 mg/kg.
With `O=Cc1ccc2c(c1)OCO2`, the LD50 was 2700 mg/kg.
With `c1ccc2c(c1)CCN1CCN=C1C2`, the 50% lethal dose (LD50) is 60 mg/kg.
As for `CC(=O)C(N=Nc1cc(Cl)c(-c2cc(Cl)c(N=NC(C(C)=O)C(=O)Nc3ccc(C)cc3C)cc2Cl)cc1Cl)C(=O)Nc1ccc(C)cc1C` (centres undefined), the LD50 was 2230 mg/kg.
`CC(=O)C=CC1C(C)C=C(C)CC1C` (centres undefined): the 50% lethal dose (LD50) is 5200 mg/kg.
Turning to `C1CS1`, the LD50 is 178 mg/kg.
Consider `S=c1[nH]c2ccccc2[nH]1`, for which the LD50 is 300 mg/kg.
In the case of `O=C(O)c1cc(I)cc(I)c1I`, the LD50 is 2200 mg/kg and 813 mg/kg.
Take `NC(=S)Nc1ccc(Cl)cc1`: the LD50 was 15 mg/kg.
On to `O=C(O)c1nn(Cc2ccc(Cl)cc2Cl)c2ccccc12`, for which the LD50 is 1700 mg/kg.
As for `Cc1c(N(C)CS(=O)(=O)O)c(=O)n(-c2ccccc2)n1C`, the 50% lethal dose (LD50) was 3000 mg/kg.
